In patent US20030175270A1, “Methods of regulating cytokine receptor signaling” (priority 2002, published 2003):

Columns and labels:
JAK1 = JAK1 Tyr 1022/Tyr 1023 phosphorylation in IL-3 stimulated BMMCs treated with Src inhibitor; assay type: cell-based, mouse; settings: IL-3 stimulated cd45+/+ or cd45-/- BMMCs
Experimental: (§1) Murine BMMCs, splenic B cells, thymocytes, peritoneal macrophages and Jurkat T-cell lines were stimulated with various cytokines. For immunoprecipitations, lysates were incubated with antibodies conjugated with agarose or Sepharose beads for 2 h at 4° C. Total cell lysates or immunoprecipitates were separated using SDS-polyacrylamide gel electrophoresis, transferred onto membranes and immunoblotted. COS cells were transfected using diethylaminoethyl-dextron transfection technique with wild-type or PTPase-dead CD45 (D1:C828s) as described [McKenney et al., J. Biol. Chem. 270:24949-24954, 1995].
(§2) Experiments were designed in order to assess whether Src kinases, known substrates of CD45, were deregulated during hyperactivation of the JAK-STAT pathway in cd45^−/− BMMCs. […] In addition, in IL-3 stimulated cd45^+/+ or cd45 ^−/− BMMCs, treatment with PP2 had no effect on the increased phosphorylation of the specific residues Tyr 1007 and TYR1008 in JAK2, Tyr 705 in STAT3, and Tyr 1022 and Tyr 1023 in JAK1 (see FIG. 2).

JAK2 = JAK2 activation/phosphorylation in IL-3 stimulated BMMCs treated with Src inhibitor; assay type: cell-based, mouse
Experimental: as §1
For tyrosine phosphatase assays, immunoprecipitated Lyn, JAKs or STATs from lysates of 10^7 BMMCs (for Lyn, JAK1, JAK2, STAT3 and STAT5) or macrophages (for Tyk2) were washed in lysis buffer and phosphatase reaction buffer [Felberg et al., J. Biol. Chem. 273:17839-17845, 1998]. The amounts of Lyn and JAK2 in the immunoprecipitates used in FIG. 3A were 72 ng and 48 ng, respectively, as determined by silver staining. […] Tyrosine phosphorylation was monitored by immunoblotting with phosphotyrosine-specific antibodies. The extent of tyrosine phosphorylation and amount of substrates were determined by quantifying the intensities of the immunoblots with NIH Image 1.61 software. […]

STAT3 = STAT3 Tyr 705 phosphorylation in IL-3 stimulated BMMCs treated with Src inhibitor; assay type: cell-based, mouse; settings: IL-3 stimulated cd45+/+ or cd45-/- BMMCs
Experimental: as §1, §2

rCD45 = molecular target: T1, rCD45 (Homo sapiens, UniProt P08575); assay: inhibition of rCD45-mediated JAK2 dephosphorylation; assay type: biochemical; settings: 0.1 mM Na3 VO4, 10 U rCD45
T1 construct: The rCD45 employed contained the intracellular dual PTPase domains with a relative molecular mas of 97,000 (Mr 97K); purchased Calbiochem
T1 sequence (P08575 599-1306 limits assumed): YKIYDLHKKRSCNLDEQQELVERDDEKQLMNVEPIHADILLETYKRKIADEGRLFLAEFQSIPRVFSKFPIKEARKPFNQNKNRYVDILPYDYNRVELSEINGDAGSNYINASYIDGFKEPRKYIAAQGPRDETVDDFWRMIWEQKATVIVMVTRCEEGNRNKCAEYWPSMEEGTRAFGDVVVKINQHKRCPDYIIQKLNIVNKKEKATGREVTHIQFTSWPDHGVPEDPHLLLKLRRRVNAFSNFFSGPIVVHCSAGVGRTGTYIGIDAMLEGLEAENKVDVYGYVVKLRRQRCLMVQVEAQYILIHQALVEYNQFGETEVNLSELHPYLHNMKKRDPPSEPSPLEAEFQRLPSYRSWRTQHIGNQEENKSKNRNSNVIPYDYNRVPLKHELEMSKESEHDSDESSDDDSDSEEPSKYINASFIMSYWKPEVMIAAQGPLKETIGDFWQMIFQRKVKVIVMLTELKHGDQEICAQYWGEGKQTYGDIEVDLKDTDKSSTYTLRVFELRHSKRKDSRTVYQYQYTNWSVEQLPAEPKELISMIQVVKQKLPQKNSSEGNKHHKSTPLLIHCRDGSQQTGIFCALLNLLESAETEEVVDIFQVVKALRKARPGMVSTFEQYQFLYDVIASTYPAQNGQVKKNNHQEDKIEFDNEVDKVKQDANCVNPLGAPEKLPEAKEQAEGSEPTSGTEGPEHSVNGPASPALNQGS
Experimental: For tyrosine phosphatase assays, immunoprecipitated Lyn, JAKs or STATs from lysates of 10^7 BMMCs (for Lyn, JAK1, JAK2, STAT3 and STAT5) or macrophages (for Tyk2) were washed in lysis buffer and phosphatase reaction buffer [Felberg et al., J. Biol. Chem. 273:17839-17845, 1998]. The amounts of Lyn and JAK2 in the immunoprecipitates used in FIG. 3A were 72 ng and 48 ng, respectively, as determined by silver staining. Recombinant CD45 was added to substrates in the presence or absence of 0.1 mM Na3 VO4 followed by incubation at 30° C. for 20 min. Tyrosine phosphorylation was monitored by immunoblotting with phosphotyrosine-specific antibodies. The extent of tyrosine phosphorylation and amount of substrates were determined by quantifying the intensities of the immunoblots with NIH Image 1.61 software. Kinase activity in anti-Lyn or anti-JAK immunoprecipitates was assessed by an in vitro kinase assay with Raytide (Oncogen Science) as a substrate or using authophosphorylation [Lui et al., Genes Dev. 13:786-791, 1999]. In vitro binding assays were performed as described [Felberg et al., J. Biol. Chem. 273:17839-17845, 1998], using 1 μg of soluble GST, GST-CD45-D2, or GST-PTPase-dead CD45 (D1:C828S). EMSAs were as described [Charurvedi et al., Mol. Cell. Biol. 17:3295-3304, 1997]. The sequences of the EMSA probes were: STAT3, 5′-[…]-3′ (SEQ ID NO: 1); STAT3 mutant, 5′-[…]-3′ (SEQ ID NO: 2). […]

Coxsackievirus B3 (CVB3) = assay: CVB3 replication in Jurkat cells, plaque-forming assay; assay type: cell-based, human; settings: IFN-α 1,000 units/ml pretreatment 4 h; cd45-deficient vs parental Jurkat cells
Experimental: For Coxsackievirus infections in vitro, Jurkat cells were pretreated with IFN-α (1,000 units ml−^1) for 4 h and inoculated in triplicate with 3×10^5 CVB3 for 1 h at 37° C. Cells were then washed to remove excess IFN-α and excess CBV3 virus, and resuspended in RPMI medium containing 10% FBS. After 24 h, culture supernatants were analyzed for the presence of infectious CVB3 by using plaque-forming assays in HeLa cell monolayers. For CVB3 infections in vivo , the cd45mutation was backcrossed onto an A/J (H2^k/k ) background for five generations. A/J (H2^k/k) mice are highly susceptible to acute and chronic CVB3 infections. Four-week-old mice were inoculated intraperitoneally with 10^5 plaque-forming units of CVB3. For lethality scores, cd45−^/− (n=25) and cd45^± (n=22) littermate mice were monitored daily after infection. […] At defined time points, mice were sacrificed and organs were processed for histology. Sections from eight mice per group were stained with haematoxylin/eosin and Masson blue. In all experiments, the CVB3 strain Gauntt-Chow was used.
IFN-α and IFN-α R-regulated signaling are critical for replication of the picomavirus Coxsackievirus B3 (CVB3) in vitro and CVB3 infections in vivo [Kandolf et al., J. Mol. Cell. Cardiol. 17:167-181, 1985]. […] CVB3 titres were measured after infection of parental or cd45-deficient Jurkat cell lines. […]

Compound: CC(C)(C)n1nc(-c2ccc(Cl)cc2)c2c(N)ncnc21 [PP2]
- increased phosphorylation of Tyr 1022 and Tyr 1023 in JAK1 (JAK1): no effect
- increased phosphorylation of Tyr 1007 and Tyr 1008 in JAK2 (JAK2; IL-3 stimulated cd45+/+ or cd45-/- BMMCs): no effect
- JAK2 activation (JAK2; cd45+/+ and cd45-/- BMMCs, addition of the inhibitor): unaffected
- increased phosphorylation of Tyr 705 in STAT3 (STAT3): no effect

Compound: [Na+].[Na+].[Na+].[O]=[V]([O-])([O-])[O-] [vanadate, Na3 VO4]
- effect on rCD45-mediated JAK2 dephosphorylation (rCD45): inhibits
- effect on rCD45-mediated JAK2 dephosphorylation (rCD45; listed as mandate): blocked JAK2 dephosphorylation

Compound: IFN-α
- suppression of CVB3 viral amplification (Coxsackievirus B3 (CVB3)): suppressed viral amplification more efficiently in cd45-deficient cells than in parental Jurkat cells
